Read-outs that look alike come from different tables or passages of the source.
Columns and labels:
[1] = test system: Formosan subterranean termites (Coptotermes formosanus); assay: Soil tunneling test in glass tube with Formosan subterranean termites; format: in vivo; conditions: concentration of application 20 ppm, a week later, three repeats
Procedure: Three (3) cm of soil was packed into the central inner portion of a glass tube that has an inner diameter of 1.7 cm and is 15 cm long, and on one surface of the soil, 0.7 mL of each aqueous solution that has the examined compound formulated to a determined dilution (examined compound and applied concentration given in table 3). Subsequently, 4% agar was inserted onto both surfaces of the soil, 50 worker Formosan subterranean termites (Coptotermes formosanus) and 5 soldier Formosan subterranean termites were deposited into side of the inner part of the tube wherein no compound was applied, and the tunneled soil condition by the termites was examined a week later. The example was repeated thrice.
Within the results of table 3, A represents a condition wherein the termites tunneled through the surface of the soil of the treated side and the non-treated side, B represents a condition wherein the surface of the soil of the treated side was tunneled through and the agar was tunneled halfway, C represents a condition wherein the surface of the soil of the treated side was incompletely tunneled through and the agar had no visible tunneling.

[2] = test system: housefly (Musca domestica) which is resistant to pyrethroid; format: in vivo; conditions: topical, 2 days later, average of 3
Source text: One half (0.5)μL of the following acetone dissolving solution wherein the concentration was adjusted to set forth a dosage given below, was applied to the back thoracic region of a housefly (Musca domestica) which is resistant to pyrethroid and the mortality was examined 2 days later.

Structure (SMILES) | results (tunneled soil condition by the termites) [1] | mortality (%) ([2]; dosage 1.25 μg per insect) | mortality (%) ([2]; dosage 5 μg per insect) | mortality (%) ([2]; dosage 10 μg per insect) | mortality (%) ([2]; dosage 2.5 μg per insect) | mortality (%) ([2]; dosage 0.625 μg per insect)
CN1COCN(Cc2cnc(Cl)s2)C1=N[N+](=O)[O-] [Compound D, 3-[(2-chloro-5-thiazolyl)methyl]-5-methyl-4-nitroiminotetrahydro-1,3,5-oxadiazine] | AAA |  |  |  |  | 
C/C(=N\C#N)N(C)Cc1ccc(Cl)nc1 [Compound A, (E)-N^1-[(6-chloro-3-pyridyl)methyl]-N^2-cyano-N^1-methylacetamidine] |  | 15% | 15% | 5% |  | 
C#CCC1=C(C)C(OC(=O)C2C(C=C(C)C)C2(C)C)CC1=O (mixture of isomers) [Prallethrin, (S)-2-methyl-4-oxo-3-prop-2-ynylcyclopent-2-enyl (1R)-cis,trans-2,2-dimethyl-3-(2-methylprop-1-enyl)cyclopropanecarboxylate] |  | 6.7% | 30% |  | 10% | 
CNC(=N[N+](=O)[O-])NCC1CCOC1 (stereo not shown) [Compound B, 1-(tetrahydrofuran-3-yl)methyl-3-methyl-2-nitroguanidine] | ACA | 45% |  |  |  | 10%

Source: patent publication US6391327B1, “Pesticidal composition” (priority 1998, dated 2002)
